Columns and labels:
[1] = system: Normal Human Epidermal Keratinocytes (NHEK) and Normal Human Epidermal Melanocytes, lightly pigmented (NHEM-LP) co-culture; assay: Synthesis of melanin in NHEK/NHEM-LP co-culture; assay type: cell-based; settings: 240 hours (10 days) incubation, NHEK:NHEM-LP 2:1, OD 405 nm
Procedure: Evaluation of the Synthesis of Melanin in a Cell Culture Model Containing Two Cell Types (Co-Culture), Firstly Normal Human Epidermal KeratinoCytes (NHEK) and Secondly Normal Human Epidermal Melanocytes, Lightly Pigmented (NHEM-LP)
The two cell types NHEK and NHEM-LP (NHEK:NHEM-LP) are employed in a ratio of 2:1.
The culture medium consists of the media keratinocyte-SFM (2 parts by volume) and medium M254 (1 part by volume).
Keratinocyte-SFM contains 0.25 ng/ml of epidermal growth factor (EGF), 25 μg/ml of pituitary extract (PE) and 25 μg/ml of gentamycin and was purchased from Thermo Fisher Scientific.
M254 contains PMA-free HMGS-2, 5 μg/ml of insulin, 50 U/ml of penicillin, 50 μg/ml of streptomycin and 25 μg/ml of gentamycin and was purchased from Thermo Fisher Scientific.
NHEK and NHEM-LP were incubated in the culture medium in microtitre plates (24-well plates) for 24 hours (37° C., 5% CO2). The culture medium was removed and replaced by an assay medium which contained the culture medium and compounds Ia, Ib and Ic to be tested or alternatively no test substance, the reference L-tyrosine (1 mM), 200 μM of IBMX or the solvent control 0.1% of THF, 0.15% of THF. Compounds Ia, Ib and Ic are added as solution (0.15% in THF). After replacement of the assay medium, the cells were incubated again for 240 hours (10 days). On days 3 and 7, assay medium was again added. All experimental investigations were carried out using a triple determination. After the end of the incubation, the melanin was extracted by cell lysis with 0.5 N NaOH. The optical density (OD) of each sample was measured at 405 nm. The melanin quantity was calculated from melanin standards (standard curve 0.39 to 100 μg/ml of melanin).

[2] = system: 3D melanized reconstructed human epidermis (RHEs-MEL); assay: Tanning properties in vitro on reconstructed epidermis; assay type: cell-based; settings: compound at 25 μM and 12.5 M
Procedure: Evaluation of the Tanning Properties In Vitro on Reconstructed Epidermis
In this study, the tanning properties of compound Ic are investigated in vitro on 3D melanized reconstructed human epidermis (RHEs-MEL). The compound IBMX (3-isobutyl-1-methylxanthine) 100 μM is employed as positive control. Compound Ic is employed 25 μM and […]. Untreated reconstructed skin is used as negative control. The in vitro skin is treated systemically with the compounds to be investigated in a culture medium for 10 days and then analysed.

With NC(=O)NCc1ccccc1 [Compound Ia, Benzylurea] the “stimulation of melanin synthesis” value ([1]; tested at 45 μM) was 17%.
For COc1ccc(CNC(N)=O)cc1 [Compound Ib, (4-methoxybenzyl)urea], the “stimulation of melanin synthesis” value ([1]; tested at 45 μM) was 18%.
In the case of NC(=O)NCc1ccc2c(c1)OCO2 [Compound Ic, benzo[1,3]dioxol-5ylmethylurea], the “stimulation of melanin synthesis” value ([1]; tested at 20 μM) is reported as 23%, the “stimulation of melanin synthesis” value ([1]; tested at 30 μM) is reported as 44% and the “ITA value (individual typology angle)” value ([2]; 10 days, both concentrations) is reported as “reduction”. The amount of melanin ([2]; 10 days, both concentrations) was “increased” and the “tanning properties compared with positive control IBMX 100 μM” value ([2]; systemic treatment in culture medium for 10 days, evident for both concentrations) was “comparably good properties as IBMX at 100 μM”.

— patent publication US11234914B2, “Monosubstituted urea derivatives as a self-tanning substance” (MERCK PATENT GMBH, priority 2016, dated 2022)
